Results taken from patent US10898592B2, “Compositions and methods for reducing the risk of post-imaging pancreatitis” (University Of Pittsburgh—Of The Commonwealth System Of …, priority 2015, dated 2021).

Legend:
primary acinar cells = experiment: Cell necrosis assay (propidium iodide uptake), primary acinar cells; type: cell-based, mouse; conditions: 6 hr incubation; U73122 5 μM; 2-APB 100 μM; BAPTA 64 μM; IKK-2 20 μM; FK506 24 μM; CsA 16 μM
Protocol: Cell necrosis assay. Acinar cells were incubated in a 48-well plate with 50 μg/ml of propidium iodide (PI) for 30 min prior to addition of RC. Fluorescence was measured at 536 nm excitation and 617 nm emission wavelengths over time a time course of up to 6 hr. Fluorescence was measured after cell lysis with 0.5% Triton-X 100 was used to normalize the results relative to total DNA.

NF-κB = experiment: NF-κB-luciferase activity assay, AR42J cells; type: cell-based; conditions: U73122 5 μM; 2-APB 100 μM; BAPTA 64 μM
Protocol: NF-κB-luciferase activity assay. AR42J cells were differentiated towards an acinar phenotype by administering dexamethasone (100 nM) for 48-72 hr^17. AR42J cells were infected with Ad-NF-κB luciferase 16 h prior to stimulation using a previously described method^12. Following a wash with DMEM/F12 medium, acinar cells were evenly distributed in a 48-well plate and incubated for 30 min at 37° C. They were incubated with RC at varying concentrations and times. NF-κB-luciferase was measured using a commercially available luciferase assay (Promega, Madison, Wis.). Briefly, cells were spun at 1,000 rpm for 5 min, washed with PBS, and lysed using reporter lysis 5× buffer (Promega, catalog no. E397A). Samples were vortexed and spun at 12,000×g for 2 min. The supernatant was plated, and luminescence was measured using a Synergy H1 plate reader (BioTek, Winooski, Vt.) and normalized to total […].

[1] = system: calcineurin (NFAT-luciferase); experiment: NFAT-luciferase activity assay, human acinar cells; type: cell-based
Protocol: (§1) NFAT-luciferase activity assay. Acinar cells were infected with Ad-NFAT-luciferase following a previously described procedure^10,15,16. The construct includes a luciferase gene placed downstream of an IL-4 promoter which contains nine tandem NFAT binding sites^10. Acinar cells were incubated with the NFAT-driven luciferase adenovirus for 1.5 hr prior to stimulation. All of the stated inhibitors were added for 30 min prior to stimulation with RC. NFAT-luciferase was measured using the luciferase assay system. Briefly, cells were spun at 1,000 rpm for 5 min, washed with PBS, and lysed using reporter lysis 5× buffer (Promega #E397A, Madison, Wis.). Samples were vortexed and spun at 12,000 g for 2 min. Supernatant was plated, and luminescence was measured using a Synergy H1 plate reader (BioTek, Winooski, Vt.) and normalized to total protein.

[2] = system: calcineurin (NFAT-luciferase); experiment: NFAT-luciferase activity assay (calcineurin activation), mouse primary acinar cells; type: cell-based; conditions: 30 min pre-treatment; FK506 24 μM; CsA 16 μM; BAPTA-AM 64 μM
Protocol: as §1

[3] = system: calcineurin (NFAT-luciferase); experiment: NFAT-luciferase activity assay, AR42J cells; type: cell-based; conditions: pretreatment; FK506 24 μM; CsA 16 μM; U73122 5 μM; 2-APB 100 μM; BAPTA 64 μM
Protocol: as §1

CC(=O)OCOC(=O)CN(CC(=O)OCOC(C)=O)c1ccccc1OCCOc1ccccc1N(CC(=O)OCOC(C)=O)CC(=O)OCOC(C)=O [BAPTA, BAPTA-AM]
effect on RC (12%)-induced acinar cell injury (PI uptake) (primary acinar cells): prevented | effect on RC-induced NF-κB-luciferase levels (NF-κB): reduced | effect on RC (25%)-induced NFAT-luciferase activity [1]: prevented | effect on RC (9%)-induced rise in NFAT-luciferase [2]: completely reduced | effect on RC (6%)-induced NFAT-luciferase activity [3]: prevented
